Measurements: patent publication US20250011368A1, “DLL3 TARGETING PEPTIDES AND CONSTRUCTS THEREOF” (MARIANA ONCOLOGY INC., priority 2023, published 2025)
Numbered stars: 1 amine (or outer) side, 2 acyl side, 3 side chain; on linkers, the order of the positions; unused ones are H or OH. Bridge positions count the residues as written; N and C are the ends. Square brackets hold non-standard residues; d marks the D form. Side chains are listed from the residue outwards. Peptide text beside a SMILES is read from it. I, II: the chains in the order shown. * marks the point of attachment. DOTA = O=C(O)CN1CCN(CC(=O)O)CCN(CC(=O)*)CCN(CC(=O)O)CC1; PEG8 = NCCOCCOCCOCCOCCOCCOCCOCCOCCC(=O)O; X6 = C[C@@H]1CN([*:1])[C@@H]1C(=O)[*:2]; γGlu = O=C(O)[C@H](CCC(=O)[*:2])N[*:1]; 2Nal = N[C@@H](Cc1ccc2ccccc2c1)C(=O)O; X8 = CC1(C)CN([*:1])[C@@H]1C(=O)[*:2]; X7 = C[C@@]1(C(=O)[*:2])CCN1[*:1]

Biological target: T1, human DLL3 (Homo sapiens, UniProt Q9NYJ7)
T1 sequence (Q9NYJ7 27-618): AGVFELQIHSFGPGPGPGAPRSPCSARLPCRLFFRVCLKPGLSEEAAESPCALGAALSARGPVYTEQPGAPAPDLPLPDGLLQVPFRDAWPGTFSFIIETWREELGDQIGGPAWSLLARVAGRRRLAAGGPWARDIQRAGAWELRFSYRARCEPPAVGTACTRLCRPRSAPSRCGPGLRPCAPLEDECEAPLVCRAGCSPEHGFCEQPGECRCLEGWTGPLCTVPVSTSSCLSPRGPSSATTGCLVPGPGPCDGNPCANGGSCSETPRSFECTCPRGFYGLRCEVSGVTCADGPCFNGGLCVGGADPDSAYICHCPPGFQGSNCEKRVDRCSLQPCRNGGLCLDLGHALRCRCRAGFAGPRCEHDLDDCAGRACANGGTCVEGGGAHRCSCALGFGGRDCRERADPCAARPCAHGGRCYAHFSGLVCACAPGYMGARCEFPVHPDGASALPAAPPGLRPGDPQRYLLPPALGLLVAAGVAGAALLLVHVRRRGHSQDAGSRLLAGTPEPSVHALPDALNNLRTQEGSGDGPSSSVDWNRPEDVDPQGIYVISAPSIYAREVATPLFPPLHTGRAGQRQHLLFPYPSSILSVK
Assay: Affinity determination by Surface Plasmon Resonance (SPR)
Format: binding
Conditions: 25° C., biotinylated human DLL3 immobilized on streptavidin sensor chip, 1:1 binding model; read-out: SPR KD
Outline: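 Kinetic and affinity constants were derived by fitting sensorgrams to a 1:1 binding model. Graded compound concentrations flowed at 100 μL/minute in 20 mM phosphate running buffer with 2% DMSO over streptavidin-immobilized biotinylated human DLL3, reference-subtracted.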

Kd, < 1 nM:
CC[C@H](C)[C@H](NC(=O)[C@@H](NC(=O)[C@H](Cc1c[nH]c2ccccc12)NC(C)=O)[C@@H](C)O)C(=O)N[C@H]1CSSC[C@@H](C(=O)N[C@@H](Cc2c[nH]c3ccccc23)C(=O)N2CCC[C@H]2C(=O)N[C@H](CCCCNC(=O)CNC(=O)[C@H](CO)NC(=O)CNC(=O)[C@H](CO)NC(=O)CNC(=O)[C@H](CO)NC(=O)CN2CCN(CC(=O)O)CCN(CC(=O)O)CCN(CC(=O)O)CC2)C(N)=O)NC(=O)[C@H](CC(=O)O)NC(=O)[C@H](Cc2cnc[nH]2)NC(=O)[C@H](Cc2ccc3ccccc3c2)NC(=O)[C@H](CC(N)=O)NC(=O)[C@H](CC(N)=O)NC1=O [compound 353, Ac-W-T-I-C(3)-N-N-(2Nal)-H-D-C(3)-W-P-[D-Lys(G-S-G-S-G-S-DOTA)]-NH2] (I: Ac-WTICNN[2Nal]HDCWP[dK]-NH2 / II: {DOTA}-SGSGSG; disulfide I:4-I:10; amide I:13-II:C)
CC[C@H](C)[C@H](NC(=O)[C@@H](NC(=O)[C@H](Cc1c[nH]c2ccccc12)NC(C)=O)[C@@H](C)O)C(=O)N[C@H]1CSSC[C@@H](C(=O)N[C@@H](Cc2c[nH]c3ccccc23)C(=O)N2CCC[C@H]2C(=O)N[C@H](CCCCNC(=O)CC[C@H](NC(=O)CN2CCN(CC(=O)O)CCN(CC(=O)O)CCN(CC(=O)O)CC2)C(=O)O)C(N)=O)NC(=O)[C@H](CC(=O)O)NC(=O)[C@H](Cc2cnc[nH]2)NC(=O)[C@H](Cc2ccc3ccccc3c2)NC(=O)[C@H](CC(N)=O)NC(=O)[C@H](CC(N)=O)NC1=O [compound 354, Ac-W-T-I-C(3)-N-N-(2Nal)-H-D-C(3)-W-P-[D-Lys(gE-DOTA)]-NH2] (Ac-WTICNN[2Nal]HDCWP[dK]([γGlu-DOTA])-NH2; disulfide 4-10)
CC[C@H](C)[C@H](NC(=O)[C@@H](NC(=O)[C@H](Cc1c[nH]c2ccccc12)NC(C)=O)[C@@H](C)O)C(=O)N[C@H]1CSSC[C@@H](C(=O)N[C@@H](Cc2c[nH]c3ccccc23)C(=O)N2CCC[C@H]2C(=O)N[C@H](CCCCNC(=O)CC[C@H](NC(=O)CC[C@H](NC(=O)CC[C@H](NC(=O)CN2CCN(CC(=O)O)CCN(CC(=O)O)CCN(CC(=O)O)CC2)C(=O)O)C(=O)O)C(=O)O)C(N)=O)NC(=O)[C@H](CC(=O)O)NC(=O)[C@H](Cc2cnc[nH]2)NC(=O)[C@H](Cc2ccc3ccccc3c2)NC(=O)[C@H](CC(N)=O)NC(=O)[C@H](CC(N)=O)NC1=O [compound 355, Ac-W-T-I-C(3)-N-N-(2Nal)-H-D-C(3)-W-P-[D-Lys(gE-gE-gE-DOTA)]-NH2] (Ac-WTICNN[2Nal]HDCWP[dK]([γGlu-γGlu-γGlu-DOTA])-NH2; disulfide 4-10)
CC[C@H](C)[C@H](NC(=O)[C@@H](NC(=O)[C@H](Cc1c[nH]c2ccccc12)NC(C)=O)[C@@H](C)O)C(=O)N[C@H]1CSSC[C@@H](C(=O)N[C@@H](Cc2c[nH]c3ccccc23)C(=O)N2CCC[C@H]2C(=O)N[C@H](CCCCNC(=O)[C@H]2CCCN2C(=O)CCOCCOCCOCCOCCOCCOCCOCCOCCNC(=O)CN2CCN(CC(=O)O)CCN(CC(=O)O)CCN(CC(=O)O)CC2)C(N)=O)NC(=O)[C@H](CC(=O)O)NC(=O)[C@H](Cc2cnc[nH]2)NC(=O)[C@H](Cc2ccc3ccccc3c2)NC(=O)[C@H](CC(N)=O)NC(=O)[C@H](CC(N)=O)NC1=O [compound 356, Ac-W-T-I-C(3)-N-N-(2Nal)-H-D-C(3)-W-P-[D-Lys((D-Pro)-PEG8-DOTA)]-NH2] (Ac-WTICNN[2Nal]HDCWP[dK]([dP-PEG8-DOTA])-NH2; disulfide 4-10)
CC[C@H](C)[C@H](NC(=O)[C@@H](NC(=O)[C@H](Cc1c[nH]c2ccccc12)NC(C)=O)[C@@H](C)O)C(=O)N[C@H]1CSSC[C@@H](C(=O)N[C@@H](Cc2c[nH]c3ccccc23)C(=O)N2CCC[C@H]2C(=O)N2CCC[C@@H]2C(=O)N2CCC[C@@H]2C(=O)N2CCC[C@@H]2C(=O)NCCOCCOCCOCCOCCOCCOCCOCCOCCC(=O)N[C@H](CCCCNC(=O)CN2CCN(CC(=O)O)CCN(CC(=O)O)CCN(CC(=O)O)CC2)C(N)=O)NC(=O)[C@H](CC(=O)O)NC(=O)[C@H](Cc2c[nH]cn2)NC(=O)[C@H](Cc2ccc3ccccc3c2)NC(=O)[C@H](CC(N)=O)NC(=O)[C@H](CC(N)=O)NC1=O [compound 357, Ac-W-T-I-C(3)-N-N-(2Nal)-H-D-C(3)-W-P-(D-Pro)3-PEG8-[D-Lys(DOTA)]-NH2] (Ac-WTICNN[2Nal]HDCWP[dP][dP][dP][PEG8][dK](DOTA)-NH2; disulfide 4-10)
CC[C@H](C)[C@H](NC(=O)[C@@H](NC(=O)[C@H](Cc1c[nH]c2ccccc12)NC(C)=O)[C@@H](C)O)C(=O)N[C@H]1CSSC[C@@H](C(=O)N[C@@H](Cc2c[nH]c3ccccc23)C(=O)N2CCC[C@H]2C(=O)N[C@H](CCCCNC(=O)[C@H]2CCCN2C(=O)[C@H]2CCCN2C(=O)[C@H]2CCCN2C(=O)CCOCCOCCOCCOCCOCCOCCOCCOCCNC(=O)CN2CCN(CC(=O)O)CCN(CC(=O)O)CCN(CC(=O)O)CC2)C(N)=O)NC(=O)[C@H](CC(=O)O)NC(=O)[C@H](Cc2c[nH]cn2)NC(=O)[C@H](Cc2ccc3ccccc3c2)NC(=O)[C@H](CC(N)=O)NC(=O)[C@H](CC(N)=O)NC1=O [compound 358, Ac-W-T-I-C(3)-N-N-(2Nal)-H-D-C(3)-W-P-[D-Lys((D-Pro)3-PEG8-DOTA)]-NH2] (Ac-WTICNN[2Nal]HDCWP[dK]([dP-dP-dP-PEG8-DOTA])-NH2; disulfide 4-10)
CC[C@H](C)[C@H](NC(=O)[C@@H](NC(=O)[C@H](Cc1c[nH]c2ccccc12)NC(C)=O)[C@@H](C)O)C(=O)N[C@H]1CSSC[C@@H](C(=O)N[C@@H](Cc2c[nH]c3ccccc23)C(=O)N2C[C@@H](C)[C@H]2C(=O)N[C@H](CCCCNC(=O)CN2CCN(CC(=O)O)CCN(CC(=O)O)CCN(CC(=O)O)CC2)C(N)=O)NC(=O)[C@H](CC(=O)O)NC(=O)[C@H](Cc2c[nH]cn2)NC(=O)[C@H](Cc2ccc3ccccc3c2)NC(=O)[C@H](CC(N)=O)NC(=O)[C@H](CC(N)=O)NC1=O [compound 359, Ac-W-T-I-C(3)-N-N-(2Nal)-H-D-C(3)-W-R-3Me-Aze-[D-Lys(DOTA)]-NH2] (Ac-WTICNN[2Nal]HDCW[X6][dK](DOTA)-NH2; disulfide 4-10)
CC[C@H](C)[C@H](NC(=O)[C@@H](NC(=O)[C@H](Cc1c[nH]c2ccccc12)NC(C)=O)[C@@H](C)O)C(=O)N[C@H]1CSSC[C@@H](C(=O)N[C@@H](Cc2c[nH]c3ccccc23)C(=O)N2CC[C@@]2(C)C(=O)N[C@H](CCCCNC(=O)CN2CCN(CC(=O)O)CCN(CC(=O)O)CCN(CC(=O)O)CC2)C(N)=O)NC(=O)[C@H](CC(=O)O)NC(=O)[C@H](Cc2c[nH]cn2)NC(=O)[C@H](Cc2ccc3ccccc3c2)NC(=O)[C@H](CC(N)=O)NC(=O)[C@H](CC(N)=O)NC1=O [compound 360, Ac-W-T-I-C(3)-N-N-(2Nal)-H-D-C(3)-W-aMe-Aze-[D-Lys(DOTA)]-NH2] (Ac-WTICNN[2Nal]HDCW[X7][dK](DOTA)-NH2; disulfide 4-10)
CC[C@H](C)[C@H](NC(=O)[C@@H](NC(=O)[C@H](Cc1c[nH]c2ccccc12)NC(C)=O)[C@@H](C)O)C(=O)N[C@H]1CSSC[C@@H](C(=O)N[C@@H](Cc2c[nH]c3ccccc23)C(=O)N2CC(C)(C)[C@H]2C(=O)N[C@H](CCCCNC(=O)CN2CCN(CC(=O)O)CCN(CC(=O)O)CCN(CC(=O)O)CC2)C(N)=O)NC(=O)[C@H](CC(=O)O)NC(=O)[C@H](Cc2c[nH]cn2)NC(=O)[C@H](Cc2ccc3ccccc3c2)NC(=O)[C@H](CC(N)=O)NC(=O)[C@H](CC(N)=O)NC1=O [compound 362, Ac-W-T-I-C(3)-N-N-(2Nal)-H-D-C(3)-W-3Me2-Aze-[D-Lys(DOTA)]-NH2] (Ac-WTICNN[2Nal]HDCW[X8][dK](DOTA)-NH2; disulfide 4-10)
